Data: patent US7511077B2, “Diamine calcium channel blockers” (Neuromed Pharmaceuticals Ltd., priority 2005, dated 2009)
Where two headings read alike, the source gives them in different places.

How the values were obtained:
[1] = molecular target: T1, rat brain N-type calcium channel subunits (α1B+α2δ+β1b cDNA subunits) (Rattus norvegicus, UniProt Q02294); test: N-type calcium channel block, whole cell patch clamp in HEK 293 cells; type: cell-based; conditions: holding potential −80 mV to +10 mV
T1 construct: expressed in transfected cells; host or cells: HEK 293
T1 sequence (Q02294 whole entry): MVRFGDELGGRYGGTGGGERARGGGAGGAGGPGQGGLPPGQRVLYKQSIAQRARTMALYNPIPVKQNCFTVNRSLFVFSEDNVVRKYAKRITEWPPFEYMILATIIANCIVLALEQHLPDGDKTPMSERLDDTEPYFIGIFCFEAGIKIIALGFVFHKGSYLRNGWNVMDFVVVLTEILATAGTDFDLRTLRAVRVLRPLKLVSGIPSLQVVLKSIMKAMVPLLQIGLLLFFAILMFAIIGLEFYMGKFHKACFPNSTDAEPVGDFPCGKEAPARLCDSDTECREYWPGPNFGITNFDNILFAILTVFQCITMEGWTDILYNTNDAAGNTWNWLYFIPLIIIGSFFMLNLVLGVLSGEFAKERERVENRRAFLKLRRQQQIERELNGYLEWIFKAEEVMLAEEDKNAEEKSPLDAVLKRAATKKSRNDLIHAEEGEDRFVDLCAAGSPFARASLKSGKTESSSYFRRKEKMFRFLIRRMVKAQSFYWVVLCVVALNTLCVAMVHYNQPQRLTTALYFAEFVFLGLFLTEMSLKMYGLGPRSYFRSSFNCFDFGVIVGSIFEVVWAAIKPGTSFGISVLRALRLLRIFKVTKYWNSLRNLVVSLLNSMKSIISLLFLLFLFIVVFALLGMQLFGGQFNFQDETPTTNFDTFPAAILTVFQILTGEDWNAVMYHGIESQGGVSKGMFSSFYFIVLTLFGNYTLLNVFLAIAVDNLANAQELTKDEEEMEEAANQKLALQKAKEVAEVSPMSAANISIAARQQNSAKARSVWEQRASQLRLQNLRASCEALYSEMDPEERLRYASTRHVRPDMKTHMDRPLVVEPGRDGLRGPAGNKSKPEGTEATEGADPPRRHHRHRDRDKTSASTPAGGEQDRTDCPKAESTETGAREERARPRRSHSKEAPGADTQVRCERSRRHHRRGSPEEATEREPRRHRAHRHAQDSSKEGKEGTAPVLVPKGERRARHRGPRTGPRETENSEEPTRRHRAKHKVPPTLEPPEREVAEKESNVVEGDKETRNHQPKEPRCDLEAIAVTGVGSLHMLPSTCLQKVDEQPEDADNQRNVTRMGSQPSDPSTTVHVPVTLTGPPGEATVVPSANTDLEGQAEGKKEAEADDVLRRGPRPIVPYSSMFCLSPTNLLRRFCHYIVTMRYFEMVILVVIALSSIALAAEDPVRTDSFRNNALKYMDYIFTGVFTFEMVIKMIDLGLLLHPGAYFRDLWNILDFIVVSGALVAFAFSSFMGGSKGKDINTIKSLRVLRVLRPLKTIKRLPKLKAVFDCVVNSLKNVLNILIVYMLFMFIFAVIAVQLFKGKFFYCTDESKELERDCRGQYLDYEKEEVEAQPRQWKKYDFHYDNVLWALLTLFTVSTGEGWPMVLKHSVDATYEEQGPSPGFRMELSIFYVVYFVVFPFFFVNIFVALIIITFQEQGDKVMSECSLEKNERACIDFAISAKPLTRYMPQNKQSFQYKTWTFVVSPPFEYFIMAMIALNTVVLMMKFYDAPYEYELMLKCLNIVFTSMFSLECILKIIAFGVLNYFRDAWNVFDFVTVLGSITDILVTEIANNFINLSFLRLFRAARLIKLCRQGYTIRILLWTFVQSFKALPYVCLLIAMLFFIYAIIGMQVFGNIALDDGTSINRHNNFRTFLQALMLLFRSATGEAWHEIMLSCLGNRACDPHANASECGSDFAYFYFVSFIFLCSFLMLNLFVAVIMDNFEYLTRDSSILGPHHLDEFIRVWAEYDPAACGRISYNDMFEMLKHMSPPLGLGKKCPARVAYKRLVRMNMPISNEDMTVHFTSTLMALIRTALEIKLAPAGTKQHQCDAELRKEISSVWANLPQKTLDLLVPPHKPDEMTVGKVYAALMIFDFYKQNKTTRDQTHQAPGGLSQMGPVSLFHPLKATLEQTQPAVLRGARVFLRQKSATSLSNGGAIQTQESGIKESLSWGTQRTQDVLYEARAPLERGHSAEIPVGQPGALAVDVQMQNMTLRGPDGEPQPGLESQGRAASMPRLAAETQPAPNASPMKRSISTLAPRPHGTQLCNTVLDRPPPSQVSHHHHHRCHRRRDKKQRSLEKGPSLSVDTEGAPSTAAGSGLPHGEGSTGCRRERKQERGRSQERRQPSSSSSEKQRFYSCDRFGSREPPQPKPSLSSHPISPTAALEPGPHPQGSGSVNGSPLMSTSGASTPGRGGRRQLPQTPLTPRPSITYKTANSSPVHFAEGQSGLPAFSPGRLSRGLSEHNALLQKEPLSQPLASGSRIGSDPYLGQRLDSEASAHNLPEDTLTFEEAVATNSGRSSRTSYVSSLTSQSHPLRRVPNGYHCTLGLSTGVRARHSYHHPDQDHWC
Procedure: N-type calcium channel blocking activity was assayed in human embryonic kidney cells, HEK 293, stably transfected with the rat brain N-type calcium channel subunits (α1B+α2δ+β1b cDNA subunits). Alternatively, N-type calcium channels (α1B+α2δ+β1b cDNA subunits), L-type channels (α1C+α2δ+β1b cDNA subunits) and P/Q-type channels (α1A+α2δ+β1b cDNA subunits) were transiently expressed in HEK 293 cells. Briefly, cells were cultured in Dulbecco's modified eagle medium (DMEM) supplemented with 10% fetal bovine serum, 200 U/ml penicillin and 0.2 mg/ml streptomycin at 37° C. with 5% CO2. At 85% confluency cells were split with 0.25% trypsin/1 mM EDTA and plated at 10% confluency on glass coverslips. At 12 hours the medium was replaced and the cells transiently transfected using a standard calcium phosphate protocol and the appropriate calcium channel cDNA's. Fresh DMEM was supplied and the cells transferred to 28° C./5% CO2. Cells were incubated for 1 to 2 days prior to whole cell recording.
Whole cell patch clamp experiments were performed using an Axopatch 200B amplifier (Axon Instruments, Burlingame, Calif.) linked to a personal computer equipped with pCLAMP software. The external and internal recording solutions contained, respectively, 5 mM BaCl2, 10 mM MgCl2, 10 mM HEPES, 40 mM TEACl, 10 mM glucose, 87.5 mM CsCl (pH 7.2) and 108 mM CsMS, 4 mM MgCl2, 9 mM EGTA, 9 mM HEPES (pH 7.2). Currents were typically elicited from a holding potential of −80 mV to +10 mV using Clampex software (Axon Instruments). Typically, currents were first elicited with low frequency stimulation (0.067 Hz) and allowed to stabilize prior to application of the compounds. The compounds were then applied during the low frequency pulse trains for two to three minutes to assess tonic block, and subsequently the pulse frequency was increased to 0.2 Hz to assess frequency dependent block. Data were analyzed using Clampfit (Axon Instruments) and SigmaPlot 4.0 (Jandel Scientific).

[2] = molecular target: T2, human α1G T-type channels (Homo sapiens, UniProt O43497); test: T-type calcium channel block, patch clamp in HEK cell lines; type: cell-based
T2 construct: expressed in transfected cells; host or cells: HEK cell lines
T2 sequence (O43497 whole entry): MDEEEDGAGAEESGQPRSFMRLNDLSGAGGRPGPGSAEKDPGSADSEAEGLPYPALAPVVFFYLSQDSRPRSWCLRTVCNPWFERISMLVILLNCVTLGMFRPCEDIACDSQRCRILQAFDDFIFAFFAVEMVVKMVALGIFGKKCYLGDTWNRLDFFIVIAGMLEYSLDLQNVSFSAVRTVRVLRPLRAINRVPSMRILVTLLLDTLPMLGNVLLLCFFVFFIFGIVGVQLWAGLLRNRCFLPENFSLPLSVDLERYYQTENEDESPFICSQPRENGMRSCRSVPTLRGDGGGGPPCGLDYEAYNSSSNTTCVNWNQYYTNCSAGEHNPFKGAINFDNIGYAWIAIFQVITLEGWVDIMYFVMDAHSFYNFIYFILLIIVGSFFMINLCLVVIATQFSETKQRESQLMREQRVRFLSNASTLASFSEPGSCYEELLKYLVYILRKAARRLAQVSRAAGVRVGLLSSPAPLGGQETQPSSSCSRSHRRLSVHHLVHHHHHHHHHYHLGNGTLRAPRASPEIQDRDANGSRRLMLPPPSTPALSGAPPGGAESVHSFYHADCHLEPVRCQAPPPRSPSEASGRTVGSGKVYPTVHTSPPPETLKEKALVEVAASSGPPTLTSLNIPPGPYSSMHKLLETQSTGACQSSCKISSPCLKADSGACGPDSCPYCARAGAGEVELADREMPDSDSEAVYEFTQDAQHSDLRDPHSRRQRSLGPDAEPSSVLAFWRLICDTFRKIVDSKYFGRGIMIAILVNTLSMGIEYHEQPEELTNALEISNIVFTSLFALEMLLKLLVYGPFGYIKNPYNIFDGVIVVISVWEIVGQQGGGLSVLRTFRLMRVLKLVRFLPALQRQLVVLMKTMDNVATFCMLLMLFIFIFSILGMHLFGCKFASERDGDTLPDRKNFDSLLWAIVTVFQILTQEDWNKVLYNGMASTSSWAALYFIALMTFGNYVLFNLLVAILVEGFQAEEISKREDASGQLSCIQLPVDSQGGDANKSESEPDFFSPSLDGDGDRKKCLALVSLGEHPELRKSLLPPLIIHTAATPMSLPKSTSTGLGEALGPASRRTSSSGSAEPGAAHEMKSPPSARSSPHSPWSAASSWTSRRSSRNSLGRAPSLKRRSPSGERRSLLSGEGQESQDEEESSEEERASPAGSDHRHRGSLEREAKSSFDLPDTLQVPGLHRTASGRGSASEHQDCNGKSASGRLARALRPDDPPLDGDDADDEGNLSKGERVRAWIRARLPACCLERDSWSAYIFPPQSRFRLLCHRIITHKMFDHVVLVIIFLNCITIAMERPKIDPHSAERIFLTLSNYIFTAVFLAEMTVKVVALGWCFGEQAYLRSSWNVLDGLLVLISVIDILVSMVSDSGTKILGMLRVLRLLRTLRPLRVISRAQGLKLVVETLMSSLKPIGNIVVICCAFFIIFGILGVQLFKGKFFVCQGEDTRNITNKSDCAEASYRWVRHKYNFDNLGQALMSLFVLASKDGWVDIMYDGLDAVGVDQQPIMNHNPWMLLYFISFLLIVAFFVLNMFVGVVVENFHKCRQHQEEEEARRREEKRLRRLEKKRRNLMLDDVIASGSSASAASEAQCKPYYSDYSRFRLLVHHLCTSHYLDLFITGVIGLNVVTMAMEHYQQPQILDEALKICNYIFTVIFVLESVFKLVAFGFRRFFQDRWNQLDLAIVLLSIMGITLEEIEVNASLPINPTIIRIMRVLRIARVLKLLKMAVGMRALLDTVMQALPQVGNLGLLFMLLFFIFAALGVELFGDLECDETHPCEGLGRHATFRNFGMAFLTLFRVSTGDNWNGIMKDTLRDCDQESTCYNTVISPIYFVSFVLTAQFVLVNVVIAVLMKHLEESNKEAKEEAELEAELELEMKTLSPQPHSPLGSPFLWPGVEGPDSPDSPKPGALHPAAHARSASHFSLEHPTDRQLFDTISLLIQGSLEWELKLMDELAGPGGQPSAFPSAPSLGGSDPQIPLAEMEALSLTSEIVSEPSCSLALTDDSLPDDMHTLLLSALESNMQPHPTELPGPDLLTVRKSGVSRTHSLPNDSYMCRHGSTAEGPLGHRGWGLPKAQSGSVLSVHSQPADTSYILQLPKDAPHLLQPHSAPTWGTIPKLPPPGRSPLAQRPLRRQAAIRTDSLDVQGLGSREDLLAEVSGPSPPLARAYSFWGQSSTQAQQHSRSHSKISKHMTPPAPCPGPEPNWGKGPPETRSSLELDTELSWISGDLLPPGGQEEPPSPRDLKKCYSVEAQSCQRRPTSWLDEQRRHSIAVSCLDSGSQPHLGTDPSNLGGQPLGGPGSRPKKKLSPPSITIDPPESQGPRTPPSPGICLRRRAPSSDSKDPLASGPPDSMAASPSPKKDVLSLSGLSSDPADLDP
Procedure: Standard patch-clamp techniques were employed to identify blockers of T-type currents. Briefly, previously described HEK cell lines stably expressing human α1G T-type channels were used for all the recordings (passage #: 4-20, 37° C., 5% CO2). To obtain T-type currents, plastic dishes containing semi-confluent cells were positioned on the stage of a ZEISS AXIOVERT S100 microscope after replacing the culture medium with external solution (see below). Whole-cell patches were obtained using pipettes (borosilicate glass with filament, O.D.: 1.5 mm, I.D.: 0.86 mm, 10 cm length), fabricated on a SUTTER P-97 puller with resistance values of ˜5 MΩ (see below for internal solution).
T-type currents were reliably obtained by using two voltage protocols: • (1) “non-inactivating”, and (2) “inactivation”
In the non-inactivating protocol, the holding potential is set at −110 mV and with a pre-pulse at −100 mV for 1 second prior to the test pulse at −40 mV for 50 ms. In the inactivation protocol, the pre-pulse is at approximately −85 mV for 1 second, which inactivates about 15% of the T-type channels.
Test compounds were dissolved in external solution, 0.1-0.01% DMSO. After ˜10 min rest, they were applied by gravity close to the cell using a WPI microfil tubing. The “non-inactivated” pre-pulse was used to examine the resting block of a compound. The “inactivated” protocol was employed to study voltage-dependent block. However, the initial data shown below were mainly obtained using the non-inactivated protocol only. IC50 values are shown for various compounds of the invention in Table 5.

[3] = low frequency stimulation 0.067 Hz (tonic block), read-out: IC50 @ 0.067 Hz
[4] = pulse frequency 0.2 Hz (frequency dependent block), read-out: IC50 @ 0.2 Hz
[5] = non-inactivating protocol, pre-pulse −100 mV (resting block), read-out: IC50 @ −100 mV
[6] = −80 mV (inactivation protocol, voltage-dependent block), read-out: IC50 @ −80 mV

Compound | IC50 [1, 3] | IC50 [1, 4] | IC50 [2, 5] | IC50 [2, 6]
COc1cc(C(=O)NC/C=C\CNC(=O)CCCCC(c2ccc(F)cc2)c2ccc(F)cc2)cc(OC)c1OC [Compound P1, N-{(Z)-4-[6,6-Bis-(4-fluoro-phenyl)-hexanoylamino]-but-2-enyl}-3,4,5-trimethoxy-benzamide] | 0.23 µM | 0.19 µM | – | –
O=C(CCCCC(c1ccc(F)cc1)c1ccc(F)cc1)NC/C=C/CNC(=O)c1ccc(F)cc1 [Compound P20, N-{(E)-4-[6,6-Bis-(4-fluoro-phenyl)-hexanoylamino]-but-2-enyl}-4-fluoro-benzamide] | 0.188 µM | 0.134 µM | 0.126 µM | 0.043 µM
CC(C)(C)c1ccc(C(=O)NC/C=C/CNC(=O)CCCCC(c2ccc(F)cc2)c2ccc(F)cc2)cc1 [Compound P14, N-{(E)-4-[6,6-Bis-(4-fluoro-phenyl)-hexanoylamino]-but-2-enyl}-4-tert-butyl-benzamide] | 0.51 µM | 0.38 µM | – | –
CC(C)(C)c1cc(C(=O)NC/C=C/CNC(=O)CCCCC(c2ccc(F)cc2)c2ccc(F)cc2)cc(C(C)(C)C)c1O [Compound P13, N-{(E)-4-[6,6-Bis-(4-fluoro-phenyl)-hexanoylamino]-but-2-enyl}-3,5-di-tert-butyl-4-hydroxy-benzamide] | 0.79 µM | 0.54 µM | – | –
O=C(CC(c1ccccc1)c1ccccc1)NCC#CCN(Cc1ccncc1)Cc1ccncc1 [Compound P30, N-[4-(Bis-pyridin-4-ylmethyl-amino)-but-2-ynyl]-3,3-diphenyl-propionamide] | 0.34 µM | 0.33 µM | 0.082 µM | 0.021 µM
O=C(CCCCC(c1ccc(F)cc1)c1ccc(F)cc1)NC/C=C/CNC(=O)COc1ccc(Cl)cc1 [Compound P16, 6,6-Bis-(4-fluoro-phenyl)-hexanoic acid{(E)-4-[2-(4-chloro-phenoxy)-acetylamino]-but-2-enyl}-amide] | 0.052 µM | 0.015 µM | 0.026 µM | 0.007 µM
Cc1ccc(C(=O)NC/C=C/CNC(=O)CCCCC(c2ccc(F)cc2)c2ccc(F)cc2)cc1 [Compound P19, N-{(E)-4-[6,6-Bis-(4-fluoro-phenyl)-hexanoylamino]-but-2-enyl}-4-methyl-benzamide] | 0.182 µM | 0.132 µM | 0.022 µM | 0.009 µM
COc1c(C(C)(C)C)cc(C(=O)NC/C=C\CNC(=O)CCCCC(c2ccc(F)cc2)c2ccc(F)cc2)cc1C(C)(C)C [Compound P2, N-{(Z)-4-[6,6-Bis-(4-fluoro-phenyl)-hexanoylamino]-but-2-enyl}-3,5-di-tert-butyl-4-methoxy-benzamide] | 0.43 µM | 0.31 µM | – | –
COc1cc(C(=O)NC/C=C/CNC(=O)CCCCC(c2ccc(F)cc2)c2ccc(F)cc2)cc(OC)c1OC [Compound P11, N-{(E)-4-[6,6-Bis-(4-fluoro-phenyl)-hexanoylamino]-but-2-enyl}-3,4,5-trimethoxy-benzamide] | 0.331 µM | 0.196 µM | 0.155 µM | 0.051 µM
COc1c(C(C)(C)C)cc(C(=O)NC/C=C/CNC(=O)CCCCC(c2ccc(F)cc2)c2ccc(F)cc2)cc1C(C)(C)C [Compound P12, N-{(E)-4-[6,6-Bis-(4-fluoro-phenyl)-hexanoylamino]-but-2-enyl}-3,5-di-tert-butyl-4-methoxy-benzamide] | 0.22 µM | 0.146 µM | 0.112 µM | 0.034 µM
COc1cc(C(=O)NCC#CCNC(=O)CCCCC(c2ccc(F)cc2)c2ccc(F)cc2)cc(OC)c1OC [Compound P22, N-{4-[6,6-Bis-(4-fluoro-phenyl)-hexanoylamino]-but-2-ynyl}-3,4,5-trimethoxy-benzamide] | 0.237 µM | 0.139 µM | 0.358 µM | 0.078 µM
O=C(CCCCC(c1ccc(F)cc1)c1ccc(F)cc1)NCCCCNC(=O)COc1ccc(Cl)cc1 [Compound P36, 6,6-Bis-(4-fluoro-phenyl)-hexanoic acid{4-[2-(4-chloro-phenoxy)-acetylamino]-butyl}-amide] | 0.039 µM | 0.01 µM | 0.063 µM | 0.029 µM
CC(C)(C)c1ccc(C(=O)NCCCCNC(=O)CCCCC(c2ccc(F)cc2)c2ccc(F)cc2)cc1 [Compound P34, N-{4-[6,6-Bis-(4-fluoro-phenyl)-hexanoylamino]-butyl}-4-tert-butyl-benzamide] | 0.291 µM | 0.165 µM | 0.177 µM | 0.141 µM
CC(C)c1ccc(C(=O)NC/C=C/CNC(=O)CCCCC(c2ccc(F)cc2)c2ccc(F)cc2)cc1 [Compound P17, N-{(E)-4-[6,6-Bis-(4-fluoro-phenyl)-hexanoylamino]-but-2-enyl}-4-isopropyl-benzamide] | 0.598 µM | 0.266 µM | 0.007 µM | 0.003 µM
CC(C)(C)c1cc(C(=O)NC/C=C\CNC(=O)CCCCC(c2ccc(F)cc2)c2ccc(F)cc2)cc(C(C)(C)C)c1O [Compound P3, N-{(Z)-4-[6,6-Bis-(4-fluoro-phenyl)-hexanoylamino]-but-2-enyl}-3,5-di-tert-butyl-4-hydroxy-benzamide] | 0.47 µM | 0.27 µM | – | –
CC(C)c1ccc(C(=O)NCC#CCNC(=O)CCCCC(c2ccc(F)cc2)c2ccc(F)cc2)cc1 [Compound P25, N-{4-[6,6-Bis-(4-fluoro-phenyl)-hexanoylamino]-but-2-ynyl}-4-isopropyl-benzamide] | 0.77 µM | 0.76 µM | 1 µM | 0.424 µM
O=C(CCCCC(c1ccc(F)cc1)c1ccc(F)cc1)NC/C=C/CNC(=O)c1ccc(Cl)cc1 [Compound P18, N-{(E)-4-[6,6-Bis-(4-fluoro-phenyl)-hexanoylamino]-but-2-enyl}-4-chloro-benzamide] | 0.809 µM | 0.305 µM | 0.149 µM | 0.039 µM
O=C(CC(c1ccccc1)c1ccccc1)NC/C=C/CN(Cc1ccncc1)Cc1ccncc1 [Compound P21, N-[(E)-4-(Bis-pyridin-4-ylmethyl-amino)-but-2-enyl]-3,3-diphenyl-propionamide] | 0.514 µM | 0.278 µM | 0.423 µM | 0.163 µM
O=C(CC(c1ccccc1)c1ccccc1)NCC#CCN(Cc1cccnc1)Cc1cccnc1 [Compound P31, N-[4-(Bis-pyridin-3-ylmethyl-amino)-but-2-ynyl]-3,3-diphenyl-propionamide] | 0.42 µM | 0.42 µM | 0.094 µM | 0.027 µM
CC(C)c1ccc(C(=O)NC/C=C\CNC(=O)CCCCC(c2ccc(F)cc2)c2ccc(F)cc2)cc1 [Compound P7, N-{(Z)-4-[6,6-Bis-(4-fluoro-phenyl)-hexanoylamino]-but-2-enyl}-4-isopropyl-benzamide] | 0.097 µM | 0.054 µM | 0.196 µM | 0.056 µM
